This is an account of results in patent US20230219925A1, “BENZO FIVE-MEMBERED NITROGEN HETEROCYCLIC COMPOUND AND APPLICATION THEREOF” (GUANGZHOU INSTITUTES OF BIOMEDICINE AND HEALTH CHINESE …, priority 2020, published 2023).

Read-outs that look alike come from different tables or passages of the source.

For one experiment, the target named is T1, RORγ (Homo sapiens, UniProt P51449).
T1 sequence (P51449 269-508 limits assumed): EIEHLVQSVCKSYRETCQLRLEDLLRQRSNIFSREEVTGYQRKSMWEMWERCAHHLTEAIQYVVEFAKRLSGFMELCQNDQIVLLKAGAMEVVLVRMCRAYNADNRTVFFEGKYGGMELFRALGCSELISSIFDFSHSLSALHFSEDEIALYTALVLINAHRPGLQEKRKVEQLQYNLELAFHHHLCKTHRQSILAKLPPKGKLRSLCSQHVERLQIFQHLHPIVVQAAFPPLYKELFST
The experiment is described as follows: luciferase dual reporter gene assay, Gal4-RORγLBD in 293T cells.

The target in a further experiment is T2, hRORγ (Homo sapiens, UniProt P51449).
T2 sequence (P51449 1-518): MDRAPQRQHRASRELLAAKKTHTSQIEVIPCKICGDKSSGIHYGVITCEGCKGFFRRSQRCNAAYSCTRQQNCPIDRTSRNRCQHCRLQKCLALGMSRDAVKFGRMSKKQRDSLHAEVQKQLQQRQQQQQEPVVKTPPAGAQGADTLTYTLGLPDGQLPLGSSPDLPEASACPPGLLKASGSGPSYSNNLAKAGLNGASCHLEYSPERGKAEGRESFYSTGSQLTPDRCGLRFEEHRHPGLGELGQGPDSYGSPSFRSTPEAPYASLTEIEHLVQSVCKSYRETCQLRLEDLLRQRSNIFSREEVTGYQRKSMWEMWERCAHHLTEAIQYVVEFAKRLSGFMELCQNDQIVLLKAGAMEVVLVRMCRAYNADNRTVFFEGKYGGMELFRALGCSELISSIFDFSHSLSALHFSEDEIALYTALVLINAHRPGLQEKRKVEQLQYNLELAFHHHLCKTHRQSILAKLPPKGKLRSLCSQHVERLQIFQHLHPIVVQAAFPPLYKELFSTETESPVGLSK
The experiment is described as follows: protein thermal stability shift assay (TSA).

[1] abbreviates: IC50 (luciferase detection technique), RORγ transcriptional activity, Table 1.
Setting [2] is: read-out: ΔTm (TSA detection technique), hRORγ 10 μM, compound 200 μM.
Where [3] appears, read: read-out: ΔTm (TSA detection technique).

On RORγ (setting [1]), `CCS(=O)(=O)c1ccc(C(NC(C)=O)C(=O)Nc2ccc(-c3nc4ccc(C)cc4n3[C@@H](C)c3ccc(C)cc3)cc2)cc1` (single isomer, unassigned) [Example 75] registered an IC50 of 100 to 1000 nM.
With `Cc1ccc2nc(-c3ccc(NS(=O)(=O)c4ccc([N+](=O)[O-])cc4)cc3)sc2c1` [Example 5, N-(4-(6-methylbenzo[d]thiazol-2-yl)phenyl)-4-nitrobenzenesulfonamide], at RORγ (setting [1]), the IC50 lay in the range of 1000 to 10000 nM. In addition, at hRORγ (setting [2]), the ΔTm at 200 µM is under 5 °C.
The matching figures for `Cc1cc(C)c(S(=O)(=O)Nc2ccc(-c3nc4ccc(C)cc4s3)cc2)c(C)c1` [Example 10, 2,4,6-trimethyl-N-(4-(6-methylbenzo[d]thiazol-2-yl)phenyl)benzenesulfonamide]: 1000 to 10000 nM and over 10 °C.
In turn, `CCN1C(=O)c2cccc3c(S(=O)(=O)Nc4ccc(-c5nc6ccc(C)cc6s5)cc4)ccc1c23` [Example 11, 1-ethyl-N-(4-(6-methylbenzo[d]thiazol-2-yl)phenyl)-2-oxo-1,2-dihydrobenzo[cd]indol-6-sulfonamide] returned a concentration for half-maximal inhibition (IC50) on RORγ of 10000 to 100000 nM. Besides, the ΔTm at 200 µM on hRORγ (setting [3]) is over 10 °C.
`Cc1ccc(CS(=O)(=O)Nc2ccc(-c3nc4ccc(C)cc4s3)cc2)cc1` [Example 12, N-(4-(6-methylbenzo[d]thiazol-2-yl)phenyl)-1-(p-tolyl)methanesulfonamide] yielded a half-inhibitory concentration (IC50) against RORγ (setting [1]) of 1000 to 10000 nM. Moreover, on hRORγ (setting [2]), the thermal shift (ΔTm) at 200 µM was over 10 °C.
Taken in the same sequence, the figures for `Cc1ccc2nc(-c3ccc(NS(=O)(=O)Cc4ccc(C#N)cc4)cc3)sc2c1` [Example 16, 1-(4-cyanophenyl)-N-(4-(6-methylbenzo[d]thiazol-2-yl)phenyl)methanesulfonamide] were 1000 to 10000 nM and over 10 °C.
Taken in the same sequence, the figures for `Cc1ccc2nc(-c3ccc(NS(=O)(=O)Cc4cccc(N)c4)cc3)sc2c1` [Example 24, 1-(3-aminophenyl)-N-(4-(6-methylbenzo[d]thiazol-2-yl)phenyl)methane sulfonamide] were 10000 to 100000 nM and over 10 °C.
In the case of `CCCCCCC(=O)Nc1ccc(-c2nc3ccc(C)cc3s2)cc1` [Example 26, N-(4-(6-methylbenzo[d]thiazol-2-yl)phenyl)heptanamide], at RORγ (setting [1]), the IC50 is under 100 nM. Also, the ΔTm at 200 µM on hRORγ (setting [2]) was over 10 °C.
Regarding `Cc1ccc(CC(=O)Nc2ccc(-c3nc4ccc(C)cc4s3)cc2)cc1` [Example 27, N-(4-(6-methylbenzo[d]thiazol-2-yl)phenyl)-2-(p-tolyl)acetamide], the concentration for half-maximal inhibition (IC50) against RORγ (setting [1]) was in the range of 10000 to 100000 nM. Besides, the ΔTm at 200 µM at hRORγ (setting [2]) was over 10 °C.
The matching figures for `CCS(=O)(=O)c1ccc(CC(=O)Nc2ccc(-c3nc4ccc(C)cc4s3)c(Cl)c2)cc1` [Example 29, N-(3-chloro-4-(6-methylbenzo[d]thiazol-2-yl)phenyl)-2-(4-(ethylsulfonyl)phenyl) acetamide]: 100 to 1000 nM and 5 to 10 °C.
The matching figures for `CCS(=O)(=O)c1ccc(CC(=O)Nc2ccc(-c3nc4ccc(F)cc4s3)cc2)cc1` [Example 30, 2-(4-(ethylsulfonyl)phenyl)-N-(4-(6-fluorobenzo[d]thiazol-2-yl)phenyl)acetamide]: 1000 to 10000 nM and 5 to 10 °C.
Turning to `CCS(=O)(=O)c1ccc(CC(=O)Nc2ccc(-c3nc4ccc(OC)cc4s3)cc2)cc1` [Example 31, 2-(4-(ethylsulfonyl)phenyl)-N-(4-(6-methoxybenzo[d]thiazol-2-yl)phenyl) acetamide], on RORγ (setting [1]), the IC50 is 10000 to 100000 nM. Further, the ΔTm at 200 µM on hRORγ (setting [2]) was 5 to 10 °C.
Taken in the same sequence, the figures for `CCS(=O)(=O)c1ccc(CC(=O)Nc2ccc(-c3nc4ccc(C)cc4n3Cc3ccc(C#N)cc3)cc2)cc1` [Example 49, N-(4-(1-(4-cyanobenzyl)-6-methyl-1H-benzo[d]imidazol-2-yl)phenyl)-2-(4-(ethylsulfonyl)phenyl)acetamide] were under 100 nM and 5 to 10 °C.
The matching figures for `CCS(=O)(=O)c1ccc(CC(=O)Nc2ccc(-c3nc4ccc(Cl)cc4n3Cc3ccccc3)cc2)cc1` [Example 52]: under 100 nM and under 5 °C.
The matching figures for `CCS(=O)(=O)c1ccc(CC(=O)Nc2ccc(-c3nc4cc(Cl)ccc4n3Cc3ccccc3)cc2)cc1` [Example 53]: under 100 nM and 5 to 10 °C.
Consider `CCS(=O)(=O)c1ccc(CC(=O)Nc2ccc(-c3nc4ccc(C(=O)NC5CCCC5)cc4n3[C@H](C)c3ccc(C)cc3)cc2)cc1` [Example 70, (R)—N-cyclopentyl-2-(4-(2-(4-(ethylsulfonyl)phenyl)acetylamino)phenyl)-1-(1-(p-tolyl)ethyl)-1H-benzo[d]imidazol-6-formamide], for which the IC50 at RORγ (setting [1]) was under 100 nM. In addition, the thermal shift (ΔTm) at 200 µM at hRORγ (setting [2]) is 5 to 10 °C.
The matching figures for `CCS(=O)(=O)c1ccc(CC(=O)Nc2ccc(-c3nc4cc(C(=O)NC5CCCC5)ccc4n3[C@H](C)c3ccc(C)cc3)cc2)cc1` [Example 72, (R)—N-cyclopentyl-2-(4-(2-(4-(ethylsulfonyl)phenyl)acetylamino)phenyl)-1-(1-(p-tolyl)ethyl)-1H-benzo[d]imidazol-5-formamide]: under 100 nM and 5 to 10 °C.
The matching figures for `CCS(=O)(=O)c1ccc(C(NC(C)=O)C(=O)Nc2ccc(-c3nc4ccc(C)cc4n3[C@@H](C)c3ccc(C)cc3)cc2)cc1` (stereo partly drawn) [Example 73, 2-acetylamino-2-(4-(ethylsulfonyl)phenyl)-N-(4-(6-methyl-1-((S)-1-(p-tolyl)ethyl)-1H-benzo[d]imidazol-2-yl)phenyl)acetamide]: under 100 nM and under 5 °C.
Taken in the same sequence, the figures for `CCCCCn1c(-c2ccc(NC(=O)C(NC(C)=O)c3ccc(S(=O)(=O)CC)cc3)cc2)nc2ccc(C)cc21` (stereo not drawn) [Example 76, 2-acetylamino-2-(4-(ethylsulfonyl)phenyl)-N-(4-(6-methyl-1-pentyl-1H-benzo[d]imidazol-2-yl)phenyl)acetamide] were under 100 nM and under 5 °C.
For `CCS(=O)(=O)c1ccc(C(NC(C)=O)C(=O)Nc2ccc(-c3nc4ccc(C)cc4n3[C@H](C)c3ccc(C)cc3)cc2)cc1` (stereo partly drawn) [Example 77, 2-acetylamino-2-(4-(ethylsulfonyl)phenyl)-N-(4-(6-methyl-1-((R)-1-(p-tolyl)ethyl)-1H-benzo[d]imidazopyridin-2-yl)phenyl)acetamide], the IC50 against RORγ (setting [1]) is under 100 nM. For the same compound, the thermal shift (ΔTm) at 200 µM on hRORγ (setting [2]) was under 5 °C.
Taken in the same sequence, the figures for `CCS(=O)(=O)c1ccc(C(NC(C)=O)C(=O)Nc2ccc(-c3nc4cc(C(=O)NC(C)C)ccc4n3[C@H](C)c3ccc(C)cc3)cc2)cc1` (stereo partly drawn) [Example 78, 2-(4-(2-acetylamino-2-(4-(ethylsulfonyl)phenyl)acetylamino)phenyl)-N-isopropyl-1-((R)-1-(p-tolyl)ethyl)-1H-benzo[d]imidazol-5-formamide] were 1000 to 10000 nM and 5 to 10 °C.
The matching figures for `CCS(=O)(=O)c1ccc(C(NC(C)=O)C(=O)Nc2ccc(-c3nc4cc(C(=O)NC(C)C)ccc4n3[C@@H](C)c3ccc(C)cc3)cc2)cc1` (stereo partly drawn) [Example 79, 2-(4-(2-acetylamino-2-(4-(ethylsulfonyl)phenyl)acetylamino)phenyl)-N-isopropyl-1-((S)-1-(p-tolyl)ethyl)-1H-benzo[d]imidazol-5-formamide]: 1000 to 10000 nM and 5 to 10 °C.
In the case of `CCS(=O)(=O)c1ccc(C(NC(C)=O)C(=O)Nc2ccc(-c3nc4ccc(C)cc4n3[C@@H](C)c3ccc(C)cc3)nc2)cc1` (stereo partly drawn) [Example 80, 2-acetylamino-2-(4-(ethylsulfonyl)phenyl)-N-(6-(6-methyl-1-((S)-1-(p-tolyl)ethyl)-1H-benzo[d]imidazol-2-yl)pyridin-3-yl)acetamide], on RORγ, the half-maximal inhibitory concentration (IC50) was under 100 nM. On hRORγ (setting [3]), the ΔTm at 200 µM is under 5 °C.
On RORγ, `CCCCCn1c(-c2ccc(NC(=O)C(NC(C)=O)c3ccc(S(=O)(=O)CC)cc3)cn2)nc2ccc(C)cc21` (stereo not drawn) [Example 81, 2-acetylamino-2-(4-(ethylsulfonyl)phenyl)-N-(6-(6-methyl-1-pentyl-1H-benzo[d]imidazol-2-yl)pyridin-3-yl)acetamide] registered an IC50 of under 100 nM. The ΔTm at 200 µM on hRORγ (setting [3]) was under 5 °C.
On to `CCS(=O)(=O)c1ccc(C(NC(C)=O)C(=O)Nc2ccc(-c3nc4ccc(C)cc4n3[C@H](C)c3ccc(C)cc3)nc2)cc1` (stereo partly drawn) [Example 82, 2-acetylamino-2-(4-(ethylsulfonyl)phenyl)-N-(6-(6-methyl-1-((R)-1-(p-tolyl)ethyl)-1H-benzo[d]imidazol-2-yl)pyridin-3-yl)acetamide], for which the IC50 on RORγ is under 100 nM. The thermal shift (ΔTm) at 200 µM on hRORγ (setting [3]) is under 5 °C.
For `CCS(=O)(=O)c1ccc(C(NC(C)=O)C(=O)Nc2ccc(-c3nc4cc(C(=O)NC(C)C)ccc4n3[C@H](C)c3ccc(C)cc3)nc2)cc1` (stereo partly drawn) [Example 83, 2-(5-(2-acetylamino-2-(4-(ethylsulfonyl)phenyl)acetylamino)pyridin-2-yl)-N-isopropyl-1-((R)-1-(p-tolyl)ethyl)-1H-benzo[d]imidazol-5-formamide], the IC50 on RORγ (setting [1]) was 1000 to 10000 nM. The ΔTm at 200 µM at hRORγ (setting [2]) is under 5 °C.
